Data taken from ChEMBL document CHEMBL3217619, “Design and synthesis of trans-2-substituted-cyclopropane-1-carboxylic acids as the first non-natural small molecule inhibitors of O-acetylserine sulfhydrylase” (Medchemcomm, 2012).

Experiments:
[1] = Binding affinity to Haemophilus influenzae OASS-A expressed in Escherichia coli assessed as dissociation constant by fluorometric analysis
[2] = Competitive inhibition of Haemophilus influenzae OASS-A expressed in Escherichia coli using OAS/TNB as substrate by ping-pong analysis
[3] = Inhibition of Haemophilus influenzae OASS-A expressed in Escherichia coli using OAS/TNB as substrate by spectrophotometric analysis
[4] = Binding affinity to Haemophilus influenzae OASS-A expressed in Escherichia coli using OAS/TNB as substrate assessed as dissociation constant

Structure (SMILES)	Kd [1] [µM]	also measured
CC(C)COC(=O)[C@H]1C[C@@H]1C(=O)O (racemic)	950	–
CCOC[C@H]1C[C@@H]1C(=O)O (racemic)	5.3	–
CC(C)OC(=O)[C@H]1C[C@@H]1C(=O)O (racemic)	513	–
CCOC(=O)[C@H]1C[C@@H]1C(=O)O (racemic)	760	–
C/C=C/[C@H]1C[C@@H]1C(=O)O (racemic)	1.46	IC50 [2]: 600 µM; IC50 [3]: 700 µM; Kd [4]: 200 µM
CC/C=C/[C@H]1C[C@@H]1C(=O)O (racemic)	21.5	–
CCOC(=O)[C@H]1C[C@H]1C(=O)O (racemic)	4700	–
CCCOC[C@H]1C[C@@H]1C(=O)O (racemic)	6.5	–
